Results from the supplement of paper PMC5908809.

Columns and labels:
[1] = tested on: NKL (IL-2 2.5 ng/mL); assay: percent inhibition of viability; higher = more inhibition; conditions: 72 h
[2] = tested on: KAI3 (IL-2 2.5 ng/mL); assay: as above; conditions: 72 h
[3] = tested on: normal primary NK cells, pool 2 (3 donors) (IL-2 2.5 ng/mL); assay: as above; conditions: 72 h
[4] = tested on: normal primary NK cells, pool 1 (3 donors), resting (IL-2 0 ng/mL); assay: as above; conditions: 72 h
[5] = tested on: YT (IL-2 2.5 ng/mL); assay: as above; conditions: 72 h
[6] = tested on: SNK-6 (IL-2 2.5 ng/mL); assay: as above; conditions: 72 h
[7] = tested on: normal primary NK cells, pool 1 (3 donors) (IL-2 2.5 ng/mL); assay: as above; conditions: 72 h
[8] = tested on: NK-92 (IL-2 2.5 ng/mL); assay: as above; conditions: 72 h
[9] = tested on: NK-YS (IL-2 2.5 ng/mL); assay: as above; conditions: 72 h
[10] = tested on: normal primary NK cells, pool 3 (3 donors) (IL-2 2.5 ng/mL); assay: as above; conditions: 72 h
[11] = tested on: IMC-1 (IL-2 20 ng/mL); assay: as above; conditions: 72 h
[12] = tested on: KHYG-1 (IL-2 2.5 ng/mL); assay: as above; conditions: 72 h
[13] = tested on: DERL-7 (IL-2 2.5 ng/mL); assay: as above; conditions: 72 h
[14] = tested on: normal NK cells expanded with K562-aAPC; assay: drug sensitivity score (DSS) (DSS units); higher = more sensitive; extreme values may be limits of the assay; conditions: 72 h; IL-2 2.5 ng/mL
Experimental: (§1)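 Drug sensitivity and resistance testing on K562-aAPC-expanded normal NK cells: 5 concentrations (10-fold steps over a 10,000-fold range), 72 h at 37 °C, viability by CellTiter-Glo normalised to DMSO and benzethonium chloride controls; DSS from the fitted curve.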

[15] = tested on: normal NK cells expanded with K562-aAPC; assay: percent inhibition of viability; higher = more inhibition; conditions: 72 h, IL-2 2.5 ng/mL
Experimental: as §1

[16] = tested on: NKL (IL-2 2.5 ng/mL); assay: drug sensitivity score (DSS) (DSS units); higher = more sensitive; extreme values may be limits of the assay; conditions: 72 h
[17] = tested on: KAI3 (IL-2 2.5 ng/mL); assay: as above; conditions: 72 h
[18] = tested on: normal primary NK cells, pool 2 (3 donors) (IL-2 2.5 ng/mL); assay: as above; conditions: 72 h
[19] = tested on: normal primary NK cells, pool 1 (3 donors), resting (IL-2 0 ng/mL); assay: as above; conditions: 72 h
[20] = tested on: YT (IL-2 2.5 ng/mL); assay: as above; conditions: 72 h
[21] = tested on: SNK-6 (IL-2 2.5 ng/mL); assay: as above; conditions: 72 h
[22] = tested on: normal primary NK cells, pool 1 (3 donors) (IL-2 2.5 ng/mL); assay: as above; conditions: 72 h
[23] = tested on: NK-92 (IL-2 2.5 ng/mL); assay: as above; conditions: 72 h
[24] = tested on: NK-YS (IL-2 2.5 ng/mL); assay: as above; conditions: 72 h
[25] = tested on: normal primary NK cells, pool 3 (3 donors) (IL-2 2.5 ng/mL); assay: as above; conditions: 72 h
[26] = tested on: IMC-1 (IL-2 20 ng/mL); assay: as above; conditions: 72 h
[27] = tested on: KHYG-1 (IL-2 2.5 ng/mL); assay: as above; conditions: 72 h
[28] = tested on: DERL-7 (IL-2 2.5 ng/mL); assay: as above; conditions: 72 h

CO[C@H](C(=O)[C@@H](O)[C@@H](C)O)[C@@H]1Cc2cc3cc(O[C@H]4C[C@@H](O[C@@H]5C[C@@H](O)[C@H](O)[C@@H](C)O5)[C@H](O)[C@@H](C)O4)c(C)c(O)c3c(O)c2C(=O)[C@H]1O[C@H]1C[C@@H](O[C@@H]2C[C@@H](O)[C@@H](O[C@@H]3C[C@](C)(O)[C@H](O)[C@@H](C)O3)[C@@H](C)O2)[C@H](O)[C@@H](C)O1 [Plicamycin] (max concentration tested 10000 nM)
percent inhibition of viability [%]
Conditions | 1 nM | 10 nM | 100 nM | 1000 nM | 10000 nM
[1] | -8.9 | -9.19 | 97.5 | 108 | 110
[2] | -19.1 | -16.3 | 61.1 | 93.9 | 106
[3] | -13 | -9.37 | 5.25 | 58.7 | 91.9
[4] | -24.1 | -3.24 | 28.7 | 88.3 | 89.5
[5] | -0.6 | 0.99 | 99 | 109 | 110
[6] | 6.54 | 44 | 92.3 | 98.5 | 97.8
[7] | -2.64 | -1.48 | 31 | 97.5 | 98.2
[8] | -10.9 | -13.5 | 17.8 | 94.4 | 108
[9] | -4.88 | 6.73 | 97.1 | 106 | 108
[10] | -7.87 | -12.9 | 5.62 | 56.1 | 95.4
[11] | -2.17 | -0.08 | -16.4 | 69.3 | 100
[12] | -6.39 | 2.63 | 87.8 | 106 | 110
[13] | 0.06 | -2.61 | 86.8 | 101 | 101
[15] | -1.48 | 0.95 | 3.45 | 18.5 | 86.7

Conditions | drug sensitivity score
[14] | 7.76
[16] | 29.5
[17] | 25.2
[18] | 12.3
[19] | 20.4
[20] | 30.5
[21] | 34.5
[22] | 22.1
[23] | 19.7
[24] | 31.2
[25] | 12.1
[26] | 13.4
[27] | 28.6
[28] | 28.2

Cc1ccc(C(=O)Nc2ccc(CN3CCN(C)CC3)c(C(F)(F)F)c2)cc1C#Cc1cnc2cccnn12 [Ponatinib] (max concentration tested 1000 nM)
percent inhibition of viability [%]
Conditions | 0.1 nM | 1 nM | 10 nM | 100 nM | 1000 nM
[1] | -13.5 | -11.6 | 1.83 | 36.3 | 70.1
[2] | -7.8 | -3.54 | 0.07 | 10.6 | 83.4
[3] | 2.87 | -1.56 | 1.5 | -2.42 | 75
[4] | 1.74 | 25.3 | 15.3 | 19.4 | 60
[5] | -6.26 | -2.49 | 1.52 | 27 | 68.5
[6] | 11.2 | 4.03 | -7.68 | -18.6 | -2.96
[7] | 2.63 | 6.68 | 12.1 | 7.51 | 81.5
[8] | -13.8 | -10.1 | -23.1 | -19.9 | 55
[9] | -8.44 | -4.74 | -4.88 | 8.88 | 33.5
[10] | -2.51 | 2.42 | 9.55 | -20 | 65
[11] | -6.8 | -0.24 | -8.73 | -1.9 | -20.2
[12] | -7.12 | -3.44 | -4.86 | 3.85 | 65.1
[13] | 6.88 | 2.27 | -1.37 | 18.4 | 74.2
[15] | -4.16 | -2.02 | 24.4 | -11.2 | 70.4

Conditions | drug sensitivity score
[14] | 3.2
[16] | 8.25
[17] | 6.4
[18] | 3.94
[19] | 8.02
[20] | 7.33
[21] | 0
[22] | 5.73
[23] | 2.11
[24] | 2.89
[25] | 2.66
[26] | 0
[27] | 4.12
[28] | 6.96
